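Dose response: 5 concentrations. Exposure: 48 h. Format: 96-well plates. Endpoint: linear interpolation; highest concentration if not reached. The concentration for 50% growth inhibition is given as GI50.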 The source made the active and inactive calls. No stated cut-off is given here; in the data, active = GI50 up to about 1.1 µM and inactive = higher.
Key:
Assay in all cases: growth of human tumour cells (NCI), 48 h
DLD-1 = tested on: DLD-1
M19-MEL = tested on: M19-MEL
DMS-114 = tested on: DMS-114
KM-20L2 = tested on: KM-20L2
RXF 631 = tested on: RXF 631
XF498 = tested on: XF498
DMS-273 = tested on: DMS-273
SNB-78 = tested on: SNB-78
HOP-18 = tested on: HOP-18

| Compound | GI50 (DLD-1) | GI50 (M19-MEL) | GI50 (DMS-114) | GI50 (KM-20L2) | GI50 (RXF 631) | GI50 (XF498) | GI50 (DMS-273) | GI50 (SNB-78) | GI50 (HOP-18) |
| --- | --- | --- | --- | --- | --- | --- | --- | --- | --- |
| O=C1c2ccccc2C(=O)c2[nH]c(Cc3ccc(F)cc3)nc21 | 4.01 µM (inactive) | 16.9 µM (inactive) | > 10 µM (inactive) | 17.1 µM (inactive) | 15.9 µM (inactive) | 17.2 µM (inactive) | 18.1 µM (inactive) |  |  |
| CCCCCCCC(=O)OCC1OC(n2cc(F)c(=O)[nH]c2=O)C(NC(=O)OCc2ccccc2)C(O)C1O (stereo not drawn) |  | 56.8 µM (inactive) | 41.6 µM (inactive) | 47.1 µM (inactive) |  |  | 40 µM (inactive) | > 100 µM (inactive) |  |
| O=C1C(=O)N(C(=O)c2ccc(Cl)c(Cl)c2)c2ccc(Cl)cc21 | 73.5 µM (inactive) | 18.8 µM (inactive) | 27.1 µM (inactive) |  |  |  | > 100 µM (inactive) | > 100 µM (inactive) | > 100 µM (inactive) |
| Cc1nc(N)sc1C(=O)/C=C/c1ccc([N+](=O)[O-])cc1 | > 100 µM (inactive) | > 100 µM (inactive) | > 100 µM (inactive) | > 100 µM (inactive) |  |  | > 100 µM (inactive) | > 100 µM (inactive) | > 100 µM (inactive) |
| COC(=O)C(=O)C(C(=O)C(=O)Nc1cc(C)ccc1C)c1nc2ccc(C(=O)c3ccccc3)cc2nc1O (stereo not drawn) |  | 88.7 µM (inactive) | 51.4 µM (inactive) | > 100 µM (inactive) | > 100 µM (inactive) |  | 74.3 µM (inactive) | 58.6 µM (inactive) | 23.8 µM (inactive) |
| C=C1CC(CC(=O)C(C)CC2CC(=C)C(=O)O2)OC1=O (stereo not drawn) | 14.4 µM (inactive) | 16.3 µM (inactive) | 21.6 µM (inactive) | 33 µM (inactive) | 46.3 µM (inactive) | 23.8 µM (inactive) | 23.2 µM (inactive) | 17.3 µM (inactive) | 22.4 µM (inactive) |
| O=C1NC(=O)C2C1c1[nH]c3ccccc3c1C1CCCC12 (stereo not drawn) | 3.87 µM (inactive) | 0.971 µM (active) | 1.35 µM (inactive) |  | 3.44 µM (inactive) | 0.538 µM (active) | 0.481 µM (active) | 6.35 µM (inactive) | 25.3 µM (inactive) |
| COC1(C)Cc2c(c(C)c(O)c3c2C(=O)C=C(Cl)C3=O)O1 (stereo not drawn) | 15.7 µM (inactive) | 16.4 µM (inactive) | 28 µM (inactive) | > 100 µM (inactive) |  | 23.6 µM (inactive) | > 64.6 µM (inactive) |  |  |
| NC(=S)N/N=C/C(=C/Nc1ccccc1)[N+](=O)[O-] | > 100 µM (inactive) | > 100 µM (inactive) | 15.7 µM (inactive) | > 100 µM (inactive) |  | > 100 µM (inactive) |  |  |  |
| COC(=O)C(C(=O)Cc1ccccc1[N+](=O)[O-])C(=O)OC | > 100 µM (inactive) | > 100 µM (inactive) |  | > 100 µM (inactive) | > 100 µM (inactive) | > 100 µM (inactive) | > 100 µM (inactive) |  | > 100 µM (inactive) |
| CC(C)(C)[C@H]1CO[C@]2(c3ccccc3)[C@@H]3C[C@@H]3C(=O)N12 | > 100 µM (inactive) | > 100 µM (inactive) | > 100 µM (inactive) | > 100 µM (inactive) |  | > 100 µM (inactive) | > 100 µM (inactive) |  |  |
| COC(=O)C1=CC2C(=O)OC1CC2C#N (stereo not drawn) | > 100 µM (inactive) |  | > 100 µM (inactive) | > 100 µM (inactive) |  | > 100 µM (inactive) | > 100 µM (inactive) | > 100 µM (inactive) | > 100 µM (inactive) |
| CC(C)NCCCC(C)Nc1ccnc2ccc3nn(C)nc3c12 (stereo not drawn) | 71.9 µM (inactive) | 84.9 µM (inactive) | 61.7 µM (inactive) | > 10 µM (inactive) |  | > 100 µM (inactive) | 41.7 µM (inactive) | 43.1 µM (inactive) | 9.4 µM (inactive) |
| CCOC(=O)c1c2ccc(/C=C/C(=O)OC)ccc-2c(C(=O)OCC)c1N | > 100 µM (inactive) | > 100 µM (inactive) | > 100 µM (inactive) | > 100 µM (inactive) |  |  | > 100 µM (inactive) |  | > 100 µM (inactive) |
| O=c1[nH]cnc2c(COCCO)c[nH]c12 | > 100 µM (inactive) | > 100 µM (inactive) | > 100 µM (inactive) | > 100 µM (inactive) | > 100 µM (inactive) | > 100 µM (inactive) | > 100 µM (inactive) | > 100 µM (inactive) | > 100 µM (inactive) |
| O=C(/C=C/c1ccc(Cl)cc1)c1ccc(Cl)c(Cl)c1 | 15 µM (inactive) | 27.8 µM (inactive) | 23.6 µM (inactive) | 41.2 µM (inactive) |  |  | 40.9 µM (inactive) | > 10 µM (inactive) |  |
| CC(C)N1CCOC(c2ccc(O)c(O)c2)C1 (stereo not drawn) | > 100 µM (inactive) | > 100 µM (inactive) | > 100 µM (inactive) | > 100 µM (inactive) | > 100 µM (inactive) | > 100 µM (inactive) | > 100 µM (inactive) | > 100 µM (inactive) |  |
| CSC(=Nc1nnc(-c2ccc([N+](=O)[O-])cc2)s1)SC | 34.7 µM (inactive) | > 100 µM (inactive) | 25.9 µM (inactive) | > 100 µM (inactive) |  | 21.6 µM (inactive) | 41.1 µM (inactive) | 12.4 µM (inactive) | 5.64 µM (inactive) |
| Cc1c(N)c(C#N)c2n(C)c3ncccc3n2c1=O | > 100 µM (inactive) | > 100 µM (inactive) |  | > 100 µM (inactive) |  | > 100 µM (inactive) | > 100 µM (inactive) | > 100 µM (inactive) | > 100 µM (inactive) |
| CN(C(=O)C12C3C4C1C1C2C3C41I)C(C)(C)C (stereo not drawn) | > 100 µM (inactive) | > 100 µM (inactive) | > 59 µM (inactive) | > 89.3 µM (inactive) | 53.2 µM (inactive) | > 61.9 µM (inactive) | 47 µM (inactive) | > 100 µM (inactive) | > 100 µM (inactive) |
| CCOC(=O)C1(C(=O)OCC)C(C(C)(C)C)=C(C)c2ccccc21 | 11.8 µM (inactive) | 14.1 µM (inactive) | 11.5 µM (inactive) | 13.5 µM (inactive) | 13.7 µM (inactive) | 12.6 µM (inactive) | 12.1 µM (inactive) |  | 29.1 µM (inactive) |
| COc1cc(Cl)cc(N(O)C(C)=O)c1OCc1ccccc1 | > 100 µM (inactive) | 70.8 µM (inactive) | 25.6 µM (inactive) | 83.2 µM (inactive) |  | 36.9 µM (inactive) | 49.9 µM (inactive) | > 100 µM (inactive) | > 100 µM (inactive) |
| C[N+](C)(C)CC(=O)N/N=C(\C(=O)Nc1ccc(Cl)cc1)C1C(=O)N(c2ccccc2)N=C1N (stereo not drawn) | > 100 µM (inactive) | > 100 µM (inactive) | > 100 µM (inactive) | > 100 µM (inactive) |  |  | > 100 µM (inactive) | > 100 µM (inactive) |  |
| O=C(Nc1cc(Cl)cc(Cl)c1)/C(Cc1nc2ccccc2nc1O)=N/NC(=O)c1ccncc1 | > 100 µM (inactive) | > 100 µM (inactive) | > 100 µM (inactive) | > 100 µM (inactive) | > 100 µM (inactive) |  |  | > 100 µM (inactive) |  |
| N#CC(C(=O)/C(=N/NC(=O)c1ccccc1O)C(C#N)c1ccccc1)c1ccccc1 (stereo not drawn) | > 100 µM (inactive) | > 100 µM (inactive) | > 100 µM (inactive) | > 100 µM (inactive) | > 100 µM (inactive) | > 100 µM (inactive) | > 100 µM (inactive) | > 100 µM (inactive) | > 100 µM (inactive) |
| COc1ccc(NC(=O)CC/C(CC(=O)C(C)(C)C)=N\NC(=O)C(=O)NN)cc1 | > 100 µM (inactive) | > 100 µM (inactive) | > 100 µM (inactive) | > 100 µM (inactive) | > 100 µM (inactive) |  | > 100 µM (inactive) | > 100 µM (inactive) | > 100 µM (inactive) |
| NC(=S)N/N=C1/C(=O)N(c2ccc(Cl)cc2Cl)C(=O)C(=O)C1c1nc2ccccc2s1 (stereo not drawn) |  | > 100 µM (inactive) | > 100 µM (inactive) | > 100 µM (inactive) |  | > 100 µM (inactive) | > 100 µM (inactive) | > 100 µM (inactive) | 98.4 µM (inactive) |
| CN(C)CC1CCC(CN(C)C)C1=NO (stereo not drawn) | > 100 µM (inactive) | > 100 µM (inactive) | > 100 µM (inactive) | > 100 µM (inactive) |  |  | > 100 µM (inactive) | > 100 µM (inactive) | > 100 µM (inactive) |
| C#C[C@]1(O)CC[C@H]2[C@@H]3CCc4cc(O)ccc4[C@H]3CC[C@@]21C [ETHINYL ESTRADIOL] | 12.6 µM (inactive) | 17.1 µM (inactive) | 16.3 µM (inactive) | 16.7 µM (inactive) |  | 28.7 µM (inactive) | > 10 µM (inactive) | 33.4 µM (inactive) | > 100 µM (inactive) |

Reference: ChEMBL document CHEMBL1201862, “PubChem BioAssay data set” (2004)
